The test system of assay [1] is West Nile virus. Nature of the assay: Protease, phospholipase, glycosidase, periodate and lectin pretreatment of Vero cells, then West Nile virus infection, plaque assay. It is filed as cell-based. The note with it: Vero cells pretreated 45 min at 25° C.; for effect of pretreatment of Vero cells on West Nile virus entry/infection: plaque assay at 12 hours p.i. As for the experimental part: Cell monolayers (Vero cells or N2A) of approximately 5×10^6 cells were washed twice with phosphate buffer saline (PBS) before enzyme treatment. Cell monolayers were incubated with the proteases and phospholipases, glycosidases and lectins (as listed below) in PBS at a pH of 7.0 for 45 min at 25° C. […] Cell monolayers were then incubated with West Nile virus (MOI=10) at 37° C. for 1 hour. Excess virus particles were inactivated with sodium citrate buffer (pH 2.8) for 10 minutes and the cell monolayer washed twice with PBS. Vero cells were then incubated at 37° C. for 12 hours. At 12 hours p.i., virus titers from the treated samples were determined by plaque assays. Three independent experiments were conducted for each set of enzymes used.
The enzymes used were; Proteases: Proteinase K (EC 3.4.21.64) from Tritirachium album, concentration of 10 μg/ml, 1 μg/ml & 0.1 μg/ml; α-chymotrypsin (EC 3.4.21.1) from bovine pancreas, concentration of 10 μg/ml & 1 μg/ml; trypsin (EC 3.4.21.4) from bovine pancreas, concentration of 10 μg/ml, 1 μg/ml & 0.1 μg/ml; Bromelain (EC 3.4.22.32) from pineapple stem, concentration of 20 mUnit/ml, 2 mUnit/ml & 0.2 mUnit/ml; Papain (EC 3.4.22.2) from Carica papaya, concentration of 50 mUnit/ml & 10 mUnit/ml. Phospholipases: Phospholipase A2 (EC 3.1.1.4) from bovine pancreas, concentration of 1 UNIT/ml & 0.1 UNIT/ml; Phospholipase C (EC 3.1.1.4.3) from Clostridium perfringes, concentration of 10 UNIT/ml & 1 UNIT/ml; Phospholipase D (EC 3.1.4.4) from peanut, concentration of 100 UNIT/ml & 10 UNIT/ml; Glycosidases: Endoglycosidase H (EC 3.2.1.96) from Streptomyces plicatus, concentration of 100 mUNIT/ml & 10 mUNIT/ml; O-glycosidase (EC3.2.1.97) from Diploccus pneumoniae, concentration of 1 mUNIT/ml & 0.1 mUNIT/ml; α-mannosidase (EC 3.2.1.24) from almonds, concentration of 1000 μ/ml, 100 μg/ml & 10 μg/ml; α-Fucosidase (EC 3.2.1.11) from almond meal, concentration of 100 mUNIT/ml & 10 mUNIT/ml; Heparinase I (EC 4.2.2.7) and Heparinase III (EC 4.2.2.2.8) from Flavobacterium heparinum, concentration of 1 UNIT/ml & 0.1 UNIT/ml. Lectins: Concanavalin-A from Jack bean, wheat germ agglutinin from Triticum vulgaris, phytohemagglutinin from Phaseolus spp., concentration of 1000 μg/ml & 100 μg/ml; Sodium periodate concentration of 1 mM & 0.1 mM. Cell viability after enzyme treatment was assessed by Trypan blue staining and observation under phase contrast microscope BX 60.
The enzymes or chemicals were used at concentrations known to be effective in reducing the entry of other known viruses (Borrow and Oldstone, 1992; Ramos-Castaneda et al., 1997; Salas-Benito and del Angel, 1997; Martinez-Barragan and del Angel, 2001). Results are expressed as the number of log unit inhibition with respect to untreated samples. At the same time, cell viability after treatments was also assessed by Trypan blue exclusion method.

For assay [2], the system named is WNV. Briefly: Competitive inhibition of WNV entry into Vero cells with soluble recombinant WNV envelope DIII. The note with it: 5 to 100 μg/ml, 30 min at 37° C. It is filed as cell-based, West Nile virus. The protocol:
(§1) Vero cells were first incubated with different concentration (5 to 100 μg/ml) of DIII protein or BSA for 30 min at 37° C. Excess or unbound protein is removed by washing thrice with PBS. Radiolabeled WNV or Dengue virus (250 plaque forming unit, PFU) is added and incubated for 1 h at 37° C. Virus entry into Vero cells was determined by radioactive counts from a scintillation counter.

The test system of assay [3] is Dengue virus. Nature of the assay: Competitive inhibition of Dengue virus entry into Vero cells with soluble recombinant WNV envelope DIII. It is filed as cell-based. The note with it: at high concentration used. As for the experimental part:
as §1

In assay [4] the test system is West Nile virus. Briefly: Competitive physiological ligand binding assay, virus entry into Vero cells. The assay is classed as cell-based. As to conditions: Vero cells incubated with ligand 1 hr, then radiolabeled virus 1 hr at 37° C. As for the experimental part: Competitive physiological ligand binding assay with fibronectin, vitronectin, heparin, chrondriotin sulphate, laminin and the peptides RGD1 and RGE1 reported in the sequence listing as SEQ ID NO: 6 and SEQ ID NO:7 was carried out. In particular Vero cells were incubated with different concentrations of ECM proteins, RGD peptides, or anti-integrin antibodies at 4° C. or 37° C. for 1 hr, washed, incubated with 50 μl of radiolabeled WNV, JEV at 37° C. for 1 hr and assessed for virus entry.

Assay [5] deals with 105-kDa cell receptor protein. Briefly: Virus Overlay Protein Binding Assay (VOPBA) on Vero plasma membrane proteins. The note with it: for West Nile virus binding to treated membrane proteins of Vero cells (VOPBA): Vero plasma membrane proteins; for West Nile virus binding after removal of papain (VOPBA): Vero cells, papain 50 mU/ml 45 minutes, 0, 2 and 4 hours after removal, with or without cycloheximide 100 μg/ml.

In assay [6] the test system is 105-kDa cell receptor protein. Briefly: Virus Overlay Protein Binding Assay (VOPBA) on N2A plasma membrane proteins.
The subject of assay [7] is WNV. The note with it: Vero cells, EDTA 3-12 mM, 2 hrs at 37° C.

From patent US8168193B2, “Molecules, compositions, methods and kits for applications associated with flaviviruses” (National University of Singapore, priority 2003, dated 2012) come the findings set out here.

No end group written: not given here.

Turning to Heparinase III, the “effect of pretreatment of Vero cells on West Nile virus entry/infection” value (from here on “effect … on West Nile virus entry/infection”) in assay [1] is given as “minimal effect”.

“DIII protein: soluble His-tagged recombinant West Nile virus envelope domain III (350-390), comprising SEQ ID NO: 19 (SIPKLEIAGXFKDL; X: residue not identified in the source)”: the “inhibition of entry of WNV into Vero cells” value in assay [2] is reported as “significantly blocked”. Also, in assay [3], the “inhibition of entry of Dengue virus into Vero cells” value is reported as “slightly block”.

As for laminin, the “inhibition of West Nile virus infection by competitive ligands” value (shortened to “inhibition … by competitive ligands”) in assay [4] is “partial inhibition”.

`[Na+].[O-][I+3]([O-])([O-])[O-]` [sodium periodate]: the “effect … on West Nile virus entry/infection” value in assay [1] is recorded as “substantially reduced”. Moreover, in assay [5], the “West Nile virus binding to treated membrane proteins of Vero cells (VOPBA)” value (shortened to “West Nile virus binding … of Vero cells (VOPBA)”) was “reduced in a dosage-dependent manner”.

Regarding O-glycosidase, the “effect … on West Nile virus entry/infection” value in assay [1] was “minimal effect”. Further, the “West Nile virus binding to treated membrane proteins of N2A cells (VOPBA)” value (shortened to “West Nile virus binding … of N2A cells (VOPBA)”) in assay [6] is listed as “did not affect”. In addition, the “West Nile virus binding … of Vero cells (VOPBA)” value in assay [5] is given as “did not affect”.

As to α-Fucosidase, in assay [1], the “effect … on West Nile virus entry/infection” value is reported as “minimal effect”.

As for phytohemagglutinin, the “West Nile virus binding … of Vero cells (VOPBA)” value in assay [5] is “no effect”.

For α-mannosidase, the “effect … on West Nile virus entry/infection” value in assay [1] is “significant inhibition”. The “West Nile virus binding … of N2A cells (VOPBA)” value in assay [6] is “No binding”. Also, the “West Nile virus binding … of Vero cells (VOPBA)” value in assay [5] is “No binding”.

In the case of `OCCS` [β-mercaptoethanol], the “West Nile virus binding … of N2A cells (VOPBA)” value in assay [6] is reported as “did not disrupt virus binding”. For the same molecule, the “West Nile virus binding … of Vero cells (VOPBA)” value in assay [5] is “did not disrupt virus binding”.

As for “RGD peptide: peptide RGD1 reported in the sequence listing as SEQ ID NO: 6 (RFDS; RGD1 amino acid sequence)”, in assay [4], the “inhibition … by competitive ligands” value was “partial inhibition”.

On to `C[C@@H]1C[C@@H]([C@H](O)CC2CC(=O)NC(=O)C2)C(=O)[C@@H](C)C1` [cycloheximide], for which the “West Nile virus binding after removal of papain (VOPBA)” value in assay [5] is “virus binding was also observed”.

As to Heparinase I, the “effect … on West Nile virus entry/infection” value in assay [1] is “minimal effect”.

With Concanavalin-A, the “effect … on West Nile virus entry/infection” value in assay [1] is “prevented the entry”. In addition, in assay [5], the “West Nile virus binding … of Vero cells (VOPBA)” value is given as “block the binding”.

As for fibronectin, in assay [4], the “inhibition … by competitive ligands” value is recorded as “partial inhibition”.

For `O=C(O)CN(CCN(CC(=O)O)CC(=O)O)CC(=O)O` [EDTA], the “binding and subsequent entry of West Nile virus” value in assay [7] is “did not block”.

B1: Papain (protein, UniProt P00784 134-345, looked up)
Papain: IPEYVDWRQKGAVTPVKNQGSCGSCWAFSAVVTIEGIIKIRTGNLNEYSEQELLDCDRRSYGCNGGYPWSALQLVAQYGIHYRNTYPYEGVQRYCRSREKGPYAAKTDGVRQVQPYNEGALLYSIANQPVSVVLEAAGKDFQLYRGGIFVGPCGNKVDHAVAAVGYGPNYILIKNSWGTGWGENGYIRIKRGTGNSYGVCGLYTSSFYPVKN
notes: Papain (EC 3.4.22.2) from Carica papaya, a cysteine endopeptidase
For the molecule B1, the “log unit inhibition of West Nile virus infection” value in assay [1] (virus titers at 12 hours p.i., with respect to untreated samples) is on record as approximately 5 log unit. The “West Nile virus binding … of N2A cells (VOPBA)” value in assay [6] was “abolished”. Further, in assay [5], the “West Nile virus binding after removal of papain (VOPBA)” value is reported as “No virus binding” and the “West Nile virus binding … of Vero cells (VOPBA)” value is given as “abolished”.

B2: Endoglycosidase H (protein, UniProt P04067 43-313, looked up)
Endo-beta-N-acetylglucosaminid …: APAPVKQGPTSVAYVEVNNNSMLNVGKYTLADGGGNAFDVAVIFAANINYDTGTKTAYLHFNENVQRVLDNAVTQIRPLQQQGIKVLLSVLGNHQGAGFANFPSQQAASAFAKQLSDAVAKYGLDGVDFDDEYAEYGNNGTAQPNDSSFVHLVTALRANMPDKIISLYNIGPAASRLSYGGVDVSDKFDYAWNPYYGTWQVPGIALPKAQLSPAAVEIGRTSRSTVADLARRTVDEGYGVYLTYNLDGGDRTADVSAFTRELYGSEAVRTP
notes: Endoglycosidase H (EC 3.2.1.96) from Streptomyces plicatus
As for B2, in assay [1], the “effect … on West Nile virus entry/infection” value is “significant inhibition”. In assay [6], the “West Nile virus binding … of N2A cells (VOPBA)” value is “No binding”. Moreover, the “West Nile virus binding … of Vero cells (VOPBA)” value in assay [5] is given as “No binding”.

B3: vitronectin (protein, UniProt P04004 20-478, looked up)
Vitronectin: DQESCKGRCTEGFNVDKKCQCDELCSYYQSCCTDYTAECKPQVTRGDVFTMPEDEYTVYDDGEEKNNATVHEQVGGPSLTSDLQAQSKGNPEQTPVLKPEEEAPAPEVGASKPEGIDSRPETLHPGRPQPPAEEELCSGKPFDAFTDLKNGSLFAFRGQYCYELDEKAVRPGYPKLIRDVWGIEGPIDAAFTRINCQGKTYLFKGSQYWRFEDGVLDPDYPRNISDGFDGIPDNVDAALALPAHSYSGRERVYFFKGKQYWEYQFQHQPSQEECEGSSLSAVFEHFAMMQRDSWEDIFELLFWGRTSAGTRQPQFISRDWHGVPGQVDAAMAGRIYISGMAPRPSLAKKQRFRHRNRKGYRSQRGHSRGRNQNSRRPSRATWLSLFSSEESNLGANNYDDYRMDWLVPATCEPIQSVFFFSGDKYYRVNLRTRRVDTVDPPYPRSIAQYWLGCPAPGHL
notes: ECM protein, physiological ligand for integrin αVβ3
Turning to B3, the “inhibition … by competitive ligands” value in assay [4] is “partial inhibition”.
